From patent publication US8476264B2, “N-(3-(2-amino-6,6-difluoro-4,4A,5,6,7,7A-hexahydro-cyclopenta[E][1,3]oxazin-4-yl)-phenylamides as BACE1 inhibitors” (Hoffmann-La Roche Inc., priority 2011, dated 2013)

Experiments:
[1] = molecular target: T1, P-gp (P-glycoprotein, human MDR1) (Homo sapiens, UniProt P08183); experiment: P-gp (P-glycoprotein) assay, bidirectional transcellular transport in LLC-PK1 and L-MDR1 cells; format: in vitro ADME; settings: ER = PappBA/PappAB, read-out: P-gp human, efflux ratio: substrate category
T1 construct: host or cells: LLC-PK1 (porcine kidney epithelial) cells, L-MDR1
T1 sequence (P08183 whole entry): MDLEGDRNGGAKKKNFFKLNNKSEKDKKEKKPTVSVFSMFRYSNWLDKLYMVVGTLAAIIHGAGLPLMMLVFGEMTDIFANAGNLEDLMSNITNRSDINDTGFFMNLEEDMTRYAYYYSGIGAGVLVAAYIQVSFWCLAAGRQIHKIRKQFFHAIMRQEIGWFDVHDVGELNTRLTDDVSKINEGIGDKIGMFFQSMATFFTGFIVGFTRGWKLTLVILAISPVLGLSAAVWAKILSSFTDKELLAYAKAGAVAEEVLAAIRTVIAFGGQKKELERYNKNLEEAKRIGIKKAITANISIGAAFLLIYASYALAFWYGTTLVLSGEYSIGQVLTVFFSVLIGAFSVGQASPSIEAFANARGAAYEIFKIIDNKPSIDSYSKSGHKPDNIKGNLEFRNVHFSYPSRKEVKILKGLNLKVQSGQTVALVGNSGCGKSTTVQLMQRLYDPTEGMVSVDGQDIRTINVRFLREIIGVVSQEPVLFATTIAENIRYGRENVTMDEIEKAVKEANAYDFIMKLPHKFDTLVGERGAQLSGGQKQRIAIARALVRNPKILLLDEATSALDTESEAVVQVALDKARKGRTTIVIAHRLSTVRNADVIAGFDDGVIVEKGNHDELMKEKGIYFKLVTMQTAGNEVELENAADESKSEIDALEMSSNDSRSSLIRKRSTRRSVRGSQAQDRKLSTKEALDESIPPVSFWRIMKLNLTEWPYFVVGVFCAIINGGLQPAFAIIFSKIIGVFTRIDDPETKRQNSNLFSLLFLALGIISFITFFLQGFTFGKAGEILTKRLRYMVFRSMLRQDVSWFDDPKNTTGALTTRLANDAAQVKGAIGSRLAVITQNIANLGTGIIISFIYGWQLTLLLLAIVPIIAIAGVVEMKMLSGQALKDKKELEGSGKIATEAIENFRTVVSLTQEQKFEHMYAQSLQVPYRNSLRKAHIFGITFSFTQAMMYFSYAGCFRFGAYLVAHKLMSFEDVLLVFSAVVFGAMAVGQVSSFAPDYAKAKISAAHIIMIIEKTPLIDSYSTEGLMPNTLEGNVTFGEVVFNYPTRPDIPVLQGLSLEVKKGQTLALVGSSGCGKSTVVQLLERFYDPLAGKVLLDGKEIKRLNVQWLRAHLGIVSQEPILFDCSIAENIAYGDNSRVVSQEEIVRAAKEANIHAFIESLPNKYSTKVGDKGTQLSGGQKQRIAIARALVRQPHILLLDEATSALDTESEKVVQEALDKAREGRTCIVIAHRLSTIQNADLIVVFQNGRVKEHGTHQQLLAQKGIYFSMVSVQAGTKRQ
Protocol: P-gp (P-glycoprotein) Assay Cell Lines Used for Transport Experiments
The LLC-PK1 cell line (ATCC #CL-101) is a porcine kidney epithelial cell line. The MDR1 (Human multidrug resistance protein 1) transfected cell lines were obtained from Dr. A. Schinkel, The Netherlands Cancer Institute (Amsterdam, The Netherlands). All cell lines were cultured on permeable inserts (96-insert plates Millipore, 0.11 cm^2 area, pore size 0.4 μm) at 0.73*10^6 cells/ml. Transport measurements were performed at day 4 after seeding. Tightness of the cell monolayer was controlled via the permeability of the extracellular marker lucifer yellow (10 μM).
In Vitro Transport Experiments
Bidirectional transcellular transport using LLC-PK1 and L-MDR1 LLC-PK1 cells exogenously expressing the human MDR1)
The experiments were performed on a TECAN automated liquid handling system. Briefly, medium was removed from all compartments and the medium of receiver side was replaced with culture medium. The trans-cellular transport measurements were initiated by adding the substrate together with extracellular marker lucifer yellow to the donor side. Inhibitors were added to both sides (1 μM elacridar). Transport experiments were performed both in the basolateral-to-apical and apical-to-basolateral directions with 3 wells each. The plates were incubated at 37° C. and 5% CO2 in a Liconic incubator. Samples were taken from the donor and the opposite (acceptor) side after 2 hours incubation. Concentrations of substrate in both compartments were determined by scintillation counting (digoxin) or by LC-MS/MS. The extracellular marker (lucifer yellow) was quantified using a spectrafluor plus reader at 430/535 nm (Ex/Em). In each experiment 3 different inserts were used for each condition and a mean was calculated.
Bidirectional transcellular transport using LLC-PK1 and L-MDR1 cells
For the transcellular transport, the following equation was used for data evaluation: […]
Where Papp, A, C0, and dQ/dt represent the apparent permeability, the filter surface area, the initial concentration, and the amount transported per time period, respectively.
Transport efflux ratios (ER) were calculated as follows: […]
Where PappBA is the permeability value in the basolateral-to-apical direction, and PappAB the permeability value in the apical-to-basolateral direction. Papp were not corrected for flux of the extracellular marker lucifer yellow, which was used to assess the quality of the cell monolayers.

[2] = Detection of glutathione conjugates; format: in vitro ADME, human; design: key: NF: in vitro no significant adduct formation relative to control; settings: in vitro, relative to control
Source text: Detection of Glutathione Conjugates
The assay conditions for the detection of glutathione conjugates follow the procedure described by C. M. Dieckhaus et al.

[3] = molecular target: T2, CYP2D6 (Homo sapiens, UniProt P10635); experiment: CYP inhibition assay, CYP2D6; format: in vitro ADME; settings: human liver microsomes, dextromethorphan O-demethylase; read-out: CYP IC50 2D6
T2 construct: 0.2 mg/ml pooled human liver microsomes; from tissue; host or cells: pooled human liver microsomes
T2 sequence (P10635 whole entry): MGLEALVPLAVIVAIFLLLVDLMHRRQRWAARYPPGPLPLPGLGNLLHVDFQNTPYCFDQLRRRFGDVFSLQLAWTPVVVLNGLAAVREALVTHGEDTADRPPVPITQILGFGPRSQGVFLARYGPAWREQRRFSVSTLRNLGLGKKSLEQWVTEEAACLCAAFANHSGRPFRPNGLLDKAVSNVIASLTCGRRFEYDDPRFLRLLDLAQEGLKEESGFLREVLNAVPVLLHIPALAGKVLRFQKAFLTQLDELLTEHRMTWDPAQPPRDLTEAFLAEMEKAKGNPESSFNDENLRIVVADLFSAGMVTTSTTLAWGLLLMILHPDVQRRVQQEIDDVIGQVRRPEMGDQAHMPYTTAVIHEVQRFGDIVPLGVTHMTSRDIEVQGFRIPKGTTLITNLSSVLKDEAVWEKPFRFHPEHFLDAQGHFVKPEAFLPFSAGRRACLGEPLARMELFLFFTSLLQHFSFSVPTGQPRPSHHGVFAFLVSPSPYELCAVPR
Protocol: (§1) Inhibition of cytochromes P450 (CYPs) 2C9, 2D6 and 3A4 was assessed using human liver microsomes and CYP-selective substrate metabolism reactions. 50 μl incubations were made up containing (finally) 0.2 mg/ml pooled human liver microsomes, 5 μM substrate (diclofenac for CYP2C9 [4′ hydroxylase], dextromethorphan for CYP2D6 [O-demethylase] or midazolam for CYP3A4 [1′ hydroxylase]), 0.25 μL DMSO containing test inhibitor and NADPH regenerating system. Test inhibitor concentrations of 50, 16.7, 5.6, 1.9, 0.6 and 0.2 μM were assessed in singlicate. Incubations were pre-warmed to 37° C. for 10 minutes before initiation by addition of NADPH regenerating system. Incubations were quenched after 5 minutes (20 minutes for dextromethorphan) by addition of 50 μl cold acetonitrile containing 20 ng/ml 4-OH-diclofenac-13C6, 20 ng/mL dextrorphan-D3 and 20 ng/mL 1-OH-midazolam-D4. Quenched incubates were stored at −20° C. for at least 1 hour before centrifugation (20,000×g, 20 minutes). Supernatants were removed and diluted 1:1 with water prior to analysis using a RapidFire sample injector system and API4000 mass spectrometer. Peak areas for substrate, metabolite and stable-labelled metabolite standard were determined using MS/MS. The peak area ratios between the metabolite generated by the enzymatic reaction and the internal standard were used in subsequent calculations. The percentage of (DMSO) control activity was calculated for each incubate and IC50 values estimated by non-linear regression. Sulfaphenazole, quinidine or ketoconazole were tested in each CYP2C9, CYP2D6 or CYP3A4 inhibition experiment, respectively, to ensure assay sensitivity and reproducibility. (Validated assays for human cytochrome P450 activities, R. L. Walsky and R. S. Obach, Drug Metabolism and Disposition 32: 647-660, 2004. and S. Fowler and H. Zhang, The AAPS Journal, Vol. 10, No. 2, 410-424, 2008.)

[4] = molecular target: T3, CYP3A4 (Homo sapiens, UniProt P08684); experiment: CYP inhibition assay, CYP3A4; format: in vitro ADME; settings: human liver microsomes, midazolam 1' hydroxylase; read-out: CYP IC50 3A4
T3 construct: 0.2 mg/ml pooled human liver microsomes; from tissue; host or cells: pooled human liver microsomes
T3 sequence (P08684 whole entry): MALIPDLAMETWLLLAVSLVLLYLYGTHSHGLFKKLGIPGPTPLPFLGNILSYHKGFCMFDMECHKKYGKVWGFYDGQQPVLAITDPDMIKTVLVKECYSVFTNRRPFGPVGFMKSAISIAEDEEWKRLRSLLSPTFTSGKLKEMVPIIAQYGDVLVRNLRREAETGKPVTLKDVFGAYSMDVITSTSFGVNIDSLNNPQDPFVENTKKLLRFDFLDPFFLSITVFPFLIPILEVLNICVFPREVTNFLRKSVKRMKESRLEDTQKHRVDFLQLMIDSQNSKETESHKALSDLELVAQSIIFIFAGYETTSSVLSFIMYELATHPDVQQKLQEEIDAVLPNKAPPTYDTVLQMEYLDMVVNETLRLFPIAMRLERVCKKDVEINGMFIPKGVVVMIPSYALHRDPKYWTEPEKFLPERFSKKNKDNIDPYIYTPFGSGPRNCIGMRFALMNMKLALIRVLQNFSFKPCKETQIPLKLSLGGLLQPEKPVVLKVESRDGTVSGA
Protocol: as §1

[5] = molecular target: T4, BACE1 (Homo sapiens, UniProt P56817); experiment: Cellular Aβ-lowering assay (Aβ40 ELISA); format: cell-based; settings: HEK293 cells stably expressing human APP wt (APP695); Aβ40 in supernatant after 18-20 hrs; read-out: BACE1 cell act. Aβ40 IC50
T4 construct: Human HEK293 cells which are stably transfected with a vector expressing a cDNA of the human APP wt gene (APP695); endogenous in cells; host or cells: HEK293 stably transfected with human APP695 wt
T4 sequence (P56817 46-501): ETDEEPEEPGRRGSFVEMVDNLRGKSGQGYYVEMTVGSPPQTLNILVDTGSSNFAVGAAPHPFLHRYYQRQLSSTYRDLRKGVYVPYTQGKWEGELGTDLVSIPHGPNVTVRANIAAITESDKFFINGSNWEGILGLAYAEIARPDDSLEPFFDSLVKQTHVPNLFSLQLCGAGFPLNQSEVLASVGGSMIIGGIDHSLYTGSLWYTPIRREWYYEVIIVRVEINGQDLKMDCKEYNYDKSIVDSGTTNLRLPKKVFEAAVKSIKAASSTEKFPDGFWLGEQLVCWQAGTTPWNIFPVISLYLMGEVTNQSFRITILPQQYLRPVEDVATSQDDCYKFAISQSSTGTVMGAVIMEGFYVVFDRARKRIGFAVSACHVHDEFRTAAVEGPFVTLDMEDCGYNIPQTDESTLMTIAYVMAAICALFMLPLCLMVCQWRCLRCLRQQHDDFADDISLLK
Method in brief: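 Secreted Aβ40 in the supernatant was measured by sandwich ELISA (C-terminal Aβ40 capture, HRP-4G8 detection, 450 nm) against an Aβ peptide standard curve.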

| efflux ratio at 2 h [1] | GSH human (glutathione adduct formation) [2] | IC50 [3] [µM] | IC50 [4] [µM] | IC50 [5] [µM] | SMILES |
| --- | --- | --- | --- | --- | --- |
| < 3 | NF | > 10 | > 10 | 0.0145 | N#Cc1ccc(C(=O)Nc2ccc(F)c([C@@]3(C(F)F)N=C(N)O[C@@H]4CC(F)(F)C[C@@H]43)c2)nc1 [Example 36, 5-Cyano-pyridine-2-carboxylic acid [(S)-3-((1R,2R)-2-amino-4-difluoromethyl-6,6-difluoro-4,4a,5,6,7,7a-hexahydro-cyclopenta[e][1,3]oxazin-4-yl)-4-fluoro-phenyl]-amide] |
| < 3 | NF | > 10 | > 10 | 0.0015 | N#Cc1ccc(C(=O)Nc2ccc(F)c([C@@]3(CF)N=C(N)O[C@@H]4CC(F)(F)C[C@@H]43)c2)nc1 [Example 3, 5-Cyano-pyridine-2-carboxylic acid [(S)-3-((1R,2R)-2-amino-6,6-difluoro-4-fluoromethyl-4,4a,5,6,7,7a-hexahydro-cyclopenta[e][1,3]oxazin-4-yl)-4-fluoro-phenyl]-amide] |

Second part, the compound before the results:

| SMILES | efflux ratio at 2 h [1] | GSH human (glutathione adduct formation) [2] | IC50 [3] [µM] | IC50 [4] [µM] | IC50 [5] [µM] |
| --- | --- | --- | --- | --- | --- |
| COc1cnc(C(=O)Nc2ccc(F)c([C@@]3(C(F)F)N=C(N)O[C@@H]4CC(F)(F)C[C@@H]43)c2)cn1 [Example 42, 5-Methoxy-pyrazine-2-carboxylic acid [(S)-3-((1R,2R)-2-amino-4-difluoromethyl-6,6-difluoro-4,4a,5,6,7,7a-hexahydro-cyclopenta[e][1,3]oxazin-4-yl)-4-fluoro-phenyl]-amide] | < 3 | NF | > 10 | > 10 | 0.03 |
| NC1=N[C@](CF)(c2cc(NC(=O)c3ccc(F)cn3)ccc2F)[C@H]2CC(F)(F)C[C@H]2O1 [Example 7, 5-Fluoro-pyridine-2-carboxylic acid [(S)-3-((1R,2R)-2-amino-6,6-difluoro-4-fluoromethyl-4,4a,5,6,7,7a-hexahydro-cyclopenta[e][1,3]oxazin-4-yl)-4-fluoro-phenyl]-amide] | < 3 | NF | > 10 | > 10 | 0.0166 |
| NC1=N[C@](CF)(c2cc(NC(=O)c3cnc(C(F)F)cn3)ccc2F)[C@H]2CC(F)(F)C[C@H]2O1 [Example 24, 5-Difluoromethyl-pyrazine-2-carboxylic acid [(S)-3-((1R,2R)-2-amino-6,6-difluoro-4-fluoromethyl-4,4a,5,6,7,7a-hexahydro-cyclopenta[e][1,3]oxazin-4-yl)-4-fluoro-phenyl]-amide] | < 3 | NF | > 10 | > 10 | 0.0079 |
